Several values for one entry are separate records, joined by “and”; a condition that tells them apart may be missing. Equal values may be shown once. Numbers after ± are expanded uncertainties.
Settings: 283.15 K, Liquid, Vibrating tube method

CCCCCC(=O)OCC(COC(=O)CCCCC)(COC(=O)CCCCC)COC(=O)CCCCC [pentaerythritol tetrahexanoate]
Settings | mass density
118.4 kPa | 1004.2 ± 1.2 kg/m3
118.7 kPa | 1004.2 ± 1.2 kg/m3
118.9 kPa | 1004.2 ± 1.2 kg/m3
119.1 kPa | 1004.4 ± 1.2 kg/m3 and 1004.2 ± 1.2 kg/m3
119.3 kPa | 1004 ± 1.2 kg/m3
119.6 kPa | 1004.2 ± 1.2 kg/m3
119.8 kPa | 1004.1 ± 1.2 kg/m3
119.9 kPa | 1004.3 ± 1.2 kg/m3 and 1004.2 ± 1.2 kg/m3
120.1 kPa | 1004.1 ± 1.2 kg/m3
121.3 kPa | 1004.2 ± 1.2 kg/m3
121.7 kPa | 1004.2 ± 1.2 kg/m3 and 1004.1 ± 1.2 kg/m3
122 kPa | 1004.3 ± 1.2 kg/m3
122.4 kPa | 1004.1 ± 1.2 kg/m3
122.5 kPa | 1004.3 ± 1.2 kg/m3
122.9 kPa | 1004.1 ± 1.2 kg/m3
123 kPa | 1004.2 ± 1.2 kg/m3
123.2 kPa | 1004.2 ± 1.2 kg/m3
123.6 kPa | 1004.3 ± 1.2 kg/m3 and 1004.2 ± 1.2 kg/m3
123.7 kPa | 1004.1 ± 1.2 kg/m3
123.9 kPa | 1004.2 ± 1.2 kg/m3 and 1004.1 ± 1.2 kg/m3
124.3 kPa | 1004.2 ± 1.2 kg/m3
124.6 kPa | 1004 ± 1.2 kg/m3
124.9 kPa | 1004.1 ± 1.2 kg/m3
125 kPa | 1004.2 ± 1.2 kg/m3
125.1 kPa | 1004.1 ± 1.2 kg/m3
125.3 kPa | 1004.2 ± 1.2 kg/m3
125.8 kPa | 1004 ± 1.2 kg/m3
126 kPa | 1004.3 ± 1.2 kg/m3
126.2 kPa | 1004.2 ± 1.2 kg/m3 and 1004.1 ± 1.2 kg/m3
127.9 kPa | 1004.2 ± 1.2 kg/m3
128.1 kPa | 1004.3 ± 1.2 kg/m3
128.4 kPa | 1004.3 ± 1.2 kg/m3
134 kPa | 1004.1 ± 1.2 kg/m3
134.1 kPa | 1004.2 ± 1.2 kg/m3
134.3 kPa | 1004.1 ± 1.2 kg/m3
134.5 kPa | 1004.3 ± 1.2 kg/m3
135 kPa | 1004.2 ± 1.2 kg/m3
135.2 kPa | 1004.2 ± 1.2 kg/m3
135.3 kPa | 1004.1 ± 1.2 kg/m3
136 kPa | 1004.2 ± 1.2 kg/m3
136.4 kPa | 1004.2 ± 1.2 kg/m3
136.6 kPa | 1004.2 ± 1.2 kg/m3 and 1004.1 ± 1.2 kg/m3
136.7 kPa | 1004.3 ± 1.2 kg/m3
136.9 kPa | 1004.1 ± 1.2 kg/m3
137.4 kPa | 1004.2 ± 1.2 kg/m3
137.6 kPa | 1004.3 ± 1.2 kg/m3 and 1004.2 ± 1.2 kg/m3
137.9 kPa | 1004.3 ± 1.2 kg/m3
138.1 kPa | 1004.2 ± 1.2 kg/m3
138.8 kPa | 1004.2 ± 1.2 kg/m3
139 kPa | 1004.1 ± 1.2 kg/m3 and 1004.3 ± 1.2 kg/m3
139.2 kPa | 1004.3 ± 1.2 kg/m3 and 1004.2 ± 1.2 kg/m3
139.3 kPa | 1004.2 ± 1.2 kg/m3
139.7 kPa | 1004.2 ± 1.2 kg/m3 and 1004.1 ± 1.2 kg/m3 and 1004.3 ± 1.2 kg/m3
140.4 kPa | 1004.3 ± 1.2 kg/m3
140.6 kPa | 1004.3 ± 1.2 kg/m3
140.7 kPa | 1004.2 ± 1.2 kg/m3
141.1 kPa | 1004.2 ± 1.2 kg/m3
141.4 kPa | 1004.2 ± 1.2 kg/m3
141.6 kPa | 1004.2 ± 1.2 kg/m3
142.1 kPa | 1004.3 ± 1.2 kg/m3
142.5 kPa | 1004.2 ± 1.2 kg/m3
143 kPa | 1004.2 ± 1.2 kg/m3 and 1004.1 ± 1.2 kg/m3
143.2 kPa | 1004.2 ± 1.2 kg/m3
144 kPa | 1004.2 ± 1.2 kg/m3 and 1004.1 ± 1.2 kg/m3
144.2 kPa | 1004.3 ± 1.2 kg/m3
144.4 kPa | 1004.1 ± 1.2 kg/m3
144.7 kPa | 1004.1 ± 1.2 kg/m3
145.4 kPa | 1004.2 ± 1.2 kg/m3
145.9 kPa | 1004.3 ± 1.2 kg/m3
146.3 kPa | 1004.2 ± 1.2 kg/m3
146.6 kPa | 1004.2 ± 1.2 kg/m3
147.3 kPa | 1004.2 ± 1.2 kg/m3

Reference: the NIST ThermoML archive (doi:10.1021/je060271a)
